What was measured:
[1] = tested on: IFNγ; assay: IFNγ mRNA expression in DIM-treated MCF-7 cells (cDNA microarray, Northern blot, quantitative RT-PCR); format: cell-based, human
Procedure: (§1) Immune response activating effects of the DIM analogs are examined with cell-based assays for cytokine and cytokine receptor expression. […] We also used a sensitive sandwich ELISA assay to examine levels of IFNγ in medium from confluent cultures of MCF-7 cells that were treated for up to 3 days. DIM derivatives confirmed to have immune response activating activity in our reporter and ELISA assays are subsequently screened in a whole animal cytokine production and Y. enterocolitica infection studies, as described below in Examples VIII and IX.
(§2) An initial cDNA gene expression microarray screen of human breast cancer MCF-7 cells treated with DIM, followed by confirmation of results using Northern blots and quantitative RT-PCR, established the transcriptional activation of IFNγ, IFNγ receptor (IFNGR1), oligoadenylate-synthase (OAS) family member protein 69 (p69-OAS), and interferon-inducible protein 56 (p56), a protein closely related to OAS. […] Maximum induction for IFNγ, IFNGR1, p69-OAS and p56 were 4.6, 3.8, 3.2 and 4.0 fold, respectively.

[2] = tested on: IFNγ receptor (IFNGR1); assay: IFNGR1 mRNA expression in DIM-treated MCF-7 cells (cDNA microarray, Northern blot, quantitative RT-PCR); format: cell-based, human
Procedure: as §1, §2

[3] = tested on: oligoadenylate-synthase (OAS) family member protein 69 (p69-OAS); assay: p69-OAS mRNA expression in MCF-7 cells (microarray, Northern blot, RT-PCR); format: cell-based, human
Procedure: as §1, §2

[4] = tested on: IFNγ; assay: Sandwich ELISA of IFNγ in medium from confluent MCF-7 cultures; format: cell-based, human; conditions: vehicle control virtually undetectable
Procedure: as §1
Using a sensitive sandwich ELISA assay, we examined levels of IFNγ in medium from confluent cultures of MCF-7 cells that were treated with DIM for up to 3 days. […] Levels of IFNγ in the medium of cultured cells were increased following incubations for 1 and 3 days from virtually undetectable levels in the vehicle treated control to approximately 50±10 pg/mL and 80±30 pg/mL, respectively, for the indole treated cells.

[5] = tested on: IFNGR1 protein; assay: Western blot analysis of IFNGR1 protein; format: cell-based, human
Procedure: IFNGR1 protein levels increased by approximately 7 fold after 24 h and persisted to 48 h compared to DMSO-treated controls.
Comparison of our results with DIM to our studies with I3C (27) show some distinct differences in the activity of DIM and its in vivo precursor in their effects on IFNγ signaling. […] Similar effects of DIM and I3C were also observed on cell proliferation and cell cycling. […] Thus, a strong level of induction (about 5 fold) was seen after only 6 hours of exposure to DIM, and the maximum induction was attained by 24 hours of treatment with this diindole. In contrast, receptor expression was increased by only about 3 fold following 24 hours of treatment with I3C, and appeared to reach the maximum induction only after about 48 hours of exposure. […] Indeed, we have shown previously that DIM accumulates in the nucleus of MCF-7 cultured cells treated with I3C (28).

[6] = tested on: OAS-Luc reporter (promoter and 5′-flanking region of p69-OAS); assay: OAS-Luc luciferase reporter in transiently transfected MCF-7 cells; format: cell-based, human; conditions: 24 h treatment
Procedure: In a further experiment to examine whether the inducing effects of DIM are at the transcriptional level, the effect of DIM on activities of two luciferase reporter constructs, OAS-Luc (12) and 4GAS-Luc (13) was examined. OAS-Luc contains the promoter and 5′-flanking region (−972) of p69-OAS and GAS-Luc contains four repeats of the consensus GAS element. MCF-7 cells transiently transfected with these reporter constructs were treated with IFNγ, DIM, or a combination of both for 24 h. […] IFNγ induced transcriptional activity of this reporter in a concentration dependent manner to a maximum of about 1.8 fold, which is less than the response of the endogenous gene of about 5.0 fold. In marked contrast to the maximum effects of combined treatments of the inducers on endogenous gene expression (nearly 12-fold increase compared to vehicle treated cells), the reporter gene construct responded with less than a 3-fold increase over the controls.

[7] = tested on: MCF-7 cells; assay: Flow cytometry of cell cycling (G1 phase); format: cell-based, human; conditions: up to 3 days; control approximately 50% in G1
From the text: Flow cytometry was used to determine the effects of DIM and IFNγ on cell cycling. […] In control groups approximately 50% of the cells were in G1. Treatment with IFNγ alone caused a small progressive increase in G1 blocked cells of up to 10% above the DMSO control, after 3 days.

[8] = tested on: MHC-II; assay: MHC-II expression in MCF-7 cells; format: cell-based, human
From the text: In an analogous further experiment, we observed no effect of DIM or IFNγ on MHC-II expression in the MCF-7 cells.

[9] = tested on: HLA-A, HLA-B, HLA-C, β-microtubulin, TAP1 and TAP2; assay: RT-PCR of MHC-I components and transporters in MCF-7 cells; format: cell-based, human
From the text: RT-PCR was used to examine the expression of the four major components of human MHC-I, including HLA-A, HLA-B, HLA-C, and β-microtubulin, as well as two important associated transporters, TAP1 and TAP2. […] As expected, the expressions of these genes were increased 2-8 fold by treatment with IFNγ.

[10] = tested on: G-CSF; assay: Serum G-CSF by ELISA in mice after DIM; format: in vivo; conditions: 30 μg/kg DIM orally
Procedure: We firstly investigated the effect of unsubstituted DIM on the production of IL-6, G-CSF, IL-12, TNF-α and IFNγ. A groups of 3 mice was given 30 μg/kg of unsubstituted DIM orally and then sacrificed at 1, 3, 5, 8, and 24 h after drug challenge. Serum was collected, pooled, and assayed for IL-6, G-CSF, IL-12 and TNF-α by ELISA. […] DIM produced an increase in circulating levels of G-CSF and TNF-α with the 3 h time point being maximal. […] DIM also stimulated IL-12 and kinetics were slightly different since the increased levels were sustained for at least 24 h.

[11] = Estimated blood concentration of DIM from dietary broccoli; set-up: species or system human; conditions: approximately 12 mg DIM from 200 g broccoli daily, maximum absorption assumed
Procedure: We observed the immune response activating activity of DIM at physiologically relevant concentrations. A person of average weight who consumes 200 g of broccoli daily will obtain approximately 12 mg of DIM. With maximum absorption of DIM, the blood concentration of DIM will reach approximately 10 μM. Therefore, in vivo concentrations of DIM from dietary Brassica vegetables represent the effective levels of DIM in vitro.

[12] = tested on: DMBA-induced mammary tumorigenesis; conditions: repeated oral administrations during promotion stage, rodents; cited from earlier work

c1ccc2c(Cc3c[nH]c4ccccc34)c[nH]c2c1 [DIM, 3,3′-Diindolylmethane]
Maximum induction of IFNγ mRNA ([1]; MCF-7 cells treated with DIM): 4.6 fold
Treatment time at which IFNγ expression was fully induced ([1]; MCF-7 cells treated with DIM): 6 h
IFNγ mRNA level following 48 h of DIM treatment ([1]; MCF-7 cells, 48 h): returned to near control levels
Maximum induction of IFNGR1 mRNA ([2]; MCF-7 cells treated with DIM): 3.8 fold
Treatment time at which maximum IFNGR-1 induction was reached ([2]; MCF-7 cells treated with DIM): 48 h
IFNGR1 mRNA level at 48 h of treatment ([2]; MCF-7 cells, 48 h): remained elevated
Maximum induction of p69-OAS mRNA ([3]; MCF-7 cells treated with DIM): 3.2 fold
Treatment time at which p69-OAS expression was fully induced ([3]; MCF-7 cells treated with DIM): 6 h
p69-OAS mRNA level at 48 h of treatment ([3]; MCF-7 cells, 48 h): remained elevated
Level of IFNγ in the medium of cultured cells ([4]; MCF-7, incubation 1 day): approximately 50±10 pg/mL
Level of IFNγ in the medium of cultured cells ([4]; MCF-7, incubation 3 days): ~80 ± 30 pg/mL
Maximum level of IFNGR1 protein induction ([5]; DIM): about 7 fold
Time at which maximum IFNGR1 protein induction was attained ([5]; DIM): ≤ 24 h
IFNGR1 protein induction ([5]; after 6 hours of exposure to DIM): about 5 fold
IFNGR1 protein level increase compared to DMSO-treated controls ([5]; after 24 h of DIM, persisted to 48 h): approximately 7 fold
Maximum induction of OAS-Luc reporter [6]: about 2.3 fold
Increase in G1 blocked cells above the DMSO control [7]: up to 30%
Effect on MHC-II expression [8]: no effect
Expression levels of the six genes (MHC-I components, TAP1, TAP2) above vehicle/background [9]: not significantly enhanced
Time point of maximal circulating G-CSF [10]: 3 h
Blood concentration of DIM [11]: approximately 10 μM
Inhibition of tumor growth [12]: ≤ 95%

From patent publication US20060100264A1, “3,3'-Diindolylmethane immune activating compositions” (priority 2004, published 2006)
